For one assay, the target named is T1, BRD4 BD1 (Homo sapiens, UniProt O60885).
T1 construct: made in house
As to the kind of experiment: AlphaScreen binding assay, BRD4 Bromodomain 1. The gist of the method: (§1)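 Compound dilution series were mixed with His-tagged BRD4 bromodomain and biotinylated tetra-acetylated H4 (1-21) peptide at pH 7.3 (BD1 and peptide at 50 nM, BD2 and peptide at 100 nM). Donor and acceptor beads were then added, and plates were equilibrated at least 1 h before reading. IC50 values were fitted with a four-parameter logistic model.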
On the technique in general: In Alpha technology, singlet oxygen from a donor bead excites a nearby acceptor bead.

Another assay concerns the target T2, BRD4 BD2 (Homo sapiens, UniProt O60885).
T2 construct: made in house
As to the kind of experiment: AlphaScreen binding assay, BRD4 Bromodomain 2. The gist of the method:
as §1

The test system of a further assay is MV4-11 cells. Put plainly: Oncology cell growth assay (3-day proliferation, CellTiter-Glo). It counts as cell-based. The note with it: Homo sapiens, MV4-11, 72 h, AML cell line MV4-11, 72 hours, compounds grouped by IC50 range, read-out: MV4-11 IC50 (inhibition of proliferation, gIC50). The gist of the method:
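72 h, 37° C, 5% CO2; MV4-11, 3000 cells/well, RPMI 1640 + 10% FBS. Compound final 10, 3.3, 1.1, 0.37, 0.12, 0.041, 0.013, 0.0045 μM. Readout CellTiter-Glo luminescence; gIC50 by 4-parameter logistic fit, normalised to DMSO and no-cell background.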

Regarding `CC(=O)N1c2ccc(-c3cn(C)cn3)cc2N(C(=O)c2ccco2)C[C@@H]1C` [Example I-401], the IC50 was 1000 to 10000 nM at BRD4 BD1, less than 50 nM on BRD4 BD2 and 100 to 500 nM in the assay with MV4-11 cells.
The like results for `CC(=O)N1c2ccc(-c3ccc(S(C)(=O)=O)cn3)cc2N(C(=O)c2ccco2)C[C@@H]1C` [Example I-407] were, in that order, 1000 to 10000 nM, less than 50 nM and greater than 500 nM.
The like results for `CC(=O)N1c2ccc(-c3cnn(Cc4ccccc4)c3)cc2N(C(=O)c2ccco2)C[C@@H]1C` [Example I-409] were, in that order, 100 to 1000 nM, less than 50 nM and less than 100 nM.
In the case of `CC(=O)N1c2ccc(-c3cn(S(=O)(=O)N(C)C)cn3)cc2N(C(=O)c2ccco2)C[C@@H]1C` [Example I-410], the IC50 on BRD4 BD1 was 100 to 1000 nM; at BRD4 BD2 it was less than 50 nM; with MV4-11 cells, 100 to 500 nM.
For `CC(=O)N1c2ccc(-c3ccc(-c4ncco4)cc3)cc2N(C(=O)c2ccco2)C[C@@H]1C` [Example I-412], in that order: 1000 to 10000 nM, less than 50 nM and 100 to 500 nM.
The like results for `CC(=O)N1c2ccc(-c3cnc(N)cn3)cc2N(C(=O)c2ccco2)C[C@@H]1C` [Example I-413] were, in that order, 1000 to 10000 nM, less than 50 nM and 100 to 500 nM.
For `COC(=O)Nc1ccc(-c2ccc3c(c2)N(C(=O)c2ccco2)C[C@H](C)N3C(C)=O)cc1` [Example I-414], in that order: 1000 to 10000 nM, less than 50 nM and 100 to 500 nM.
Take `CC(=O)N1c2ccc(-c3ccc(C4(O)COC4)cc3)cc2N(C(=O)c2ccco2)C[C@@H]1C` [Example I-415]: the IC50 at BRD4 BD1 is 100 to 1000 nM; at BRD4 BD2, less than 50 nM; in the assay on MV4-11 cells, 100 to 500 nM.
Turning to `CC(=O)N1c2ccc(-c3ccc(N4CCS(=O)(=O)CC4)cc3)cc2N(C(=O)c2ccco2)C[C@@H]1C` [Example I-417], the IC50 was 100 to 1000 nM at BRD4 BD1, less than 50 nM at BRD4 BD2 and less than 100 nM in the assay with MV4-11 cells.
The like results for `CC(=O)N1c2ccc(-c3cn(C)nn3)cc2N(C(=O)c2ccco2)C[C@@H]1C` [Example I-420] were, in that order, 1000 to 10000 nM, 50 to 500 nM and greater than 500 nM.
For `CC(=O)N1c2ccc(-c3ccc(C(=O)N4CCNCC4)cc3)cc2N(C(=O)c2ccco2)C[C@@H]1C` [Example I-422], in that order: 100 to 1000 nM, less than 50 nM and 100 to 500 nM.
Turning to `CC(=O)N1c2ccc(-c3ccc(S(=O)(=O)CCO)cc3)cc2N(C(=O)c2ccco2)C[C@@H]1C` [Example I-423], the IC50 on BRD4 BD1 lay within 1000 to 10000 nM; at BRD4 BD2 it was 50 to 500 nM; with MV4-11 cells it was 100 to 500 nM.
For `CC(=O)N1c2ccc(-c3ccc(S(=O)(=O)CCN)cc3)cc2N(C(=O)c2ccco2)C[C@@H]1C` [Example I-425], the results for the IC50 on BRD4 BD1, on BRD4 BD2 and in the assay on MV4-11 cells were 100 to 1000 nM, less than 50 nM and 100 to 500 nM, respectively.
The like results for `CC(=O)N1c2ccc(-c3ccc(C(=O)NCCN)cc3)cc2N(C(=O)c2ccco2)C[C@@H]1C` [Example I-426] were, in that order, 1000 to 10000 nM, less than 50 nM and 100 to 500 nM.
The like results for `CC(=O)N1c2ccc(-c3ccc(CN4CCCS4(=O)=O)cc3)cc2N(C(=O)c2ccco2)C[C@@H]1C` [Example I-427] were, in that order, 100 to 1000 nM, less than 50 nM and 100 to 500 nM.
The like results for `CC(=O)N1c2ccc(-c3ccc(OCCC#N)cc3)cc2N(C(=O)c2ccco2)C[C@@H]1C` [Example I-428] were, in that order, 100 to 1000 nM, 50 to 500 nM and 100 to 500 nM.
For `CC(=O)N1c2ccc(-c3ccc(-c4ncc[nH]4)cc3)cc2N(C(=O)c2ccco2)CC1C` (stereo not drawn) [Example I-429], the IC50 on BRD4 BD1 was 100 to 1000 nM; at BRD4 BD2, less than 50 nM; in the assay on MV4-11 cells, 100 to 500 nM.
For `CC(=O)N1c2ccc(-c3nnc(N)s3)cc2N(C(=O)c2ccco2)C[C@@H]1C` [Example I-430], in that order: 1000 to 10000 nM, 50 to 500 nM and 100 to 500 nM.
For `CC(=O)N1c2ccc(-c3ccc(N4CCS(=O)(=O)CC4)cc3)cc2N(C(=O)C2CC2)C[C@@H]1C` [Example I-435], in that order: 100 to 1000 nM, less than 50 nM and 100 to 500 nM.
For `C[C@H]1CN(C(=O)C2CC2)c2cc(-c3ccc(N4CCS(=O)(=O)CC4)cc3)ccc2N1C(=O)C1CC1` [Example I-436], in that order: 100 to 1000 nM, 50 to 500 nM and 100 to 500 nM.
For `CC(=O)N1c2ccc(-c3ccc(C(=O)N4CCNCC4)cc3)cc2N(C(=O)C2CC2)C[C@@H]1C` [Example I-437], the figures for the IC50 on BRD4 BD1, at BRD4 BD2 and in the assay on MV4-11 cells were 100 to 1000 nM, 50 to 500 nM and 100 to 500 nM, respectively.
For `C[C@H]1CN(C(=O)C2CC2)c2cc(-c3ccc(C(=O)N4CCNCC4)cc3)ccc2N1C(=O)C1CC1` [Example I-438], in that order: 100 to 1000 nM, 50 to 500 nM and 100 to 500 nM.
For `CC(=O)N1c2ccc(-c3ccc(N4CCCS4(=O)=O)cc3)cc2N(C(=O)C2CC2)C[C@@H]1C` [Example I-439], in that order: 100 to 1000 nM, 50 to 500 nM and 100 to 500 nM.
The like results for `CC(=O)N1c2ccc(-c3ccc(C4(O)COC4)cc3)cc2N(C(=O)C2CC2)C[C@@H]1C` [Example I-443] were, in that order, 100 to 1000 nM, less than 50 nM and 100 to 500 nM.
As to `CC(=O)N1c2ccc(-c3ccc(CS(N)(=O)=O)cc3)cc2N(C(=O)C2CC2)C[C@@H]1C` [Example I-445], the IC50 at BRD4 BD1 lay within 100 to 1000 nM; on BRD4 BD2, 50 to 500 nM; with MV4-11 cells, 100 to 500 nM.
For `CC(=O)N1c2ccc(-c3ccc(S(=O)(=O)CCN)cc3)cc2N(C(=O)C2CC2)C[C@@H]1C` [Example I-447], in that order: 1000 to 10000 nM, 50 to 500 nM and greater than 500 nM.
For `CC(=O)N1c2ccc(-c3ccc(S(=O)(=O)CCO)cc3)cc2N(C(=O)C2CC2)C[C@@H]1C` [Example I-449], in that order: 100 to 1000 nM, 50 to 500 nM and greater than 500 nM.
For `COC(=O)N1c2ccc(-c3ccc(N4CCS(=O)(=O)CC4)cc3)cc2N(C(=O)C2CC2)C[C@@H]1C` [Example I-455], in that order: 100 to 1000 nM, 50 to 500 nM and 100 to 500 nM.
Take `COC(=O)N1c2ccc(-c3ccc(C(=O)N4CCNCC4)cc3)cc2N(C(=O)C2CC2)C[C@@H]1C` [Example I-456]: the IC50 on BRD4 BD1 was 100 to 1000 nM; on BRD4 BD2 it was 50 to 500 nM; in the assay on MV4-11 cells, 100 to 500 nM.
Take `CC(=O)N1c2ccc(-c3cn(C)nn3)cc2N(C(=O)OC(C)C)C[C@@H]1C` [Example I-465]: the figures for the IC50 on BRD4 BD1, at BRD4 BD2 and with MV4-11 cells were 100 to 1000 nM, 50 to 500 nM and 100 to 500 nM, respectively.
On to `CC(=O)N1c2ccc(-c3ccc(N4CCS(=O)(=O)CC4)cc3)cc2N(C(=O)OC(C)C)C[C@@H]1C` [Example I-467], for which the IC50 is 100 to 1000 nM on BRD4 BD1, 50 to 500 nM on BRD4 BD2 and 100 to 500 nM in the assay on MV4-11 cells.
For `CC(C)OC(=O)N1C[C@H](C)N(C(=O)C2CC2)c2ccc(-c3ccc(N4CCS(=O)(=O)CC4)cc3)cc21` [Example I-468], in that order: 100 to 1000 nM, 50 to 500 nM and 100 to 500 nM.
For `CC(=O)N1c2ccc(-c3ccc(N4CCCS4(=O)=O)cc3)cc2N(C(=O)OC(C)C)C[C@@H]1C` [Example I-469], in that order: 100 to 1000 nM, 50 to 500 nM and 100 to 500 nM.
For `CC(C)OC(=O)N1C[C@H](C)N(C(=O)C2CC2)c2ccc(-c3ccc(N4CCCS4(=O)=O)cc3)cc21` [Example I-470], in that order: 100 to 1000 nM, greater than 500 nM and greater than 500 nM.
Turning to `CC(=O)N1c2ccc(-c3cnc(N)cn3)cc2N(C(=O)OC(C)C)C[C@@H]1C` [Example I-471], the IC50 at BRD4 BD1 lay within 100 to 1000 nM; at BRD4 BD2 it was 50 to 500 nM; in the assay on MV4-11 cells, 100 to 500 nM.
With `CC(C)OC(=O)N1C[C@H](C)N(C(=O)C2CC2)c2ccc(-c3cnc(N)cn3)cc21` [Example I-472], the IC50 on BRD4 BD1 is 100 to 1000 nM; on BRD4 BD2, greater than 500 nM; in the assay on MV4-11 cells, greater than 500 nM.
In the case of `CC(=O)N1c2ccc(-c3ccc(C4(O)COC4)cc3)cc2N(C(=O)OC(C)C)C[C@@H]1C` [Example I-473], the IC50 lay within 100 to 1000 nM on BRD4 BD1, 50 to 500 nM at BRD4 BD2 and 100 to 500 nM with MV4-11 cells.
The like results for `CC(C)OC(=O)N1C[C@H](C)N(C(=O)C2CC2)c2ccc(-c3ccc(C4(O)COC4)cc3)cc21` [Example I-474] were, in that order, 100 to 1000 nM, 50 to 500 nM and greater than 500 nM.
For `CC(=O)N1c2ccc(-c3ccc(CS(N)(=O)=O)cc3)cc2N(C(=O)OC(C)C)C[C@@H]1C` [Example I-475], in that order: 100 to 1000 nM, 50 to 500 nM and 100 to 500 nM.
The like results for `CC(C)OC(=O)N1C[C@H](C)N(C(=O)C2CC2)c2ccc(-c3ccc(CS(N)(=O)=O)cc3)cc21` [Example I-476] were, in that order, 100 to 1000 nM, greater than 500 nM and greater than 500 nM.
Consider `CC(=O)N1c2ccc(-c3ccc(S(=O)(=O)CCN)cc3)cc2N(C(=O)OC(C)C)C[C@@H]1C` [Example I-477], for which the IC50 at BRD4 BD1 is 100 to 1000 nM; on BRD4 BD2, less than 50 nM; in the assay on MV4-11 cells, 100 to 500 nM.

Values taken from patent US10703764B2, “Benzopiperazine compositions as BET bromodomain inhibitors” (FORMA Therapeutics, Inc., priority 2013, dated 2020).
